The source of these data is patent US20120220562A1, “Anti-Viral Compounds” (ABBOTT LABAORATORIES, priority 2011, published 2012).

By EC50 is commonly meant the midpoint of the concentration-response curve.

Some results are limits rather than exact numbers.

For this test, the system named is HCV 1b-Con1 replicon. Nature of the test: HCV 1b-Con1 replicon assay in the presence of 5% FBS. The format is cell-based. The conditions noted are these: Hepatitis C virus. (In antiviral work, replicon cells carry a viral genome segment that copies itself.)
As for `COC(=O)N[C@H](C(=O)N1CCC[C@H]1c1nc2cc([C@H]3CC[C@H](c4ccc5[nH]c([C@@H]6CCCN6C(=O)[C@@H](NC(=O)OC)C(C)C)nc5c4)N3c3cc(F)c(N4[C@H](C)CCC[C@@H]4C)c(F)c3)ccc2[nH]1)C(C)C` [Example 4.6, methyl {(2S)-1-[(2S)-2-{5-[(2R,5R)-1-{4-[(2R,6S)-2,6-dimethylpiperidin-1-yl]-3,5-difluorophenyl}-5-{2-[(2S)-1-{(2S)-2-[(methoxycarbonyl)amino]-3-methylbutanoyl}pyrrolidin-2-yl]-1H-benzimidazol-5-yl}pyrrolidin-2-yl]-1H-benzimidazol-2-yl}pyrrolidin-1-yl]-3-methyl-1-oxobutan-2-yl}carbamate], the concentration for a half-maximal effect (EC50) is below 0.1 nM.

For the molecule `COC(=O)N[C@H](C(=O)N1C[C@@H](F)C[C@H]1c1nc2cc([C@H]3CC[C@H](c4ccc5[nH]c([C@@H]6C[C@H](F)CN6C(=O)[C@@H](NC(=O)OC)C(C)C)nc5c4)N3c3ccc(C(C)(C)C)cc3)ccc2[nH]1)C(C)C` [Example 3.12, methyl {(2S)-1-[(2S,4S)-2-{5-[(2R,5R)-1-(4-tert-butylphenyl)-5-{2-[(2S,45)-4-fluoro-1-{(2S)-2-[(methoxycarbonyl)amino]-3-methylbutanoyl}pyrrolidin-2-yl]-1H-benzimidazol-5-yl}pyrrolidin-2-yl]-1H-benzimidazol-2-yl}-4-fluoropyrrolidin-1-yl]-3-methyl-1-oxobutan-2-yl}carbamate], the EC50 was below 0.1 nM.

`COC(=O)N[C@H](C(=O)N1CCC[C@H]1c1nc2cc([C@H]3CC[C@H](c4cc5nc([C@@H]6CCCN6C(=O)[C@@H](NC(=O)OC)C(C)C)[nH]c5cc4F)N3c3cc(F)c(N4CCC(c5ccc(F)cc5F)CC4)c(F)c3)c(F)cc2[nH]1)C(C)C` [Example 4.56, methyl {(2S)-1-[(2S)-2-{5-[(2R,5R)-1-{4-[4-(2,4-difluorophenyl)piperidin-1-yl]-3,5-difluorophenyl}-5-{6-fluoro-2-[(2S)-1-{(2S)-2-[(methoxycarbonyl)amino]-3-methylbutanoyl}pyrrolidin-2-yl]-1H-benzimidazol-5-yl}pyrrolidin-2-yl]-6-fluoro-1H-benzimidazol-2-yl}pyrrolidin-1-yl]-3-methyl-1-oxobutan-2-yl}carbamate]: the EC50 was below 0.1 nM.

For `COC(=O)N[C@H](C(=O)N1CCC[C@H]1c1nc2cc([C@H]3CC[C@H](c4ccc5[nH]c([C@@H]6CCCN6C(=O)[C@@H](NC(=O)OC)[C@@H](C)OC)nc5c4)N3c3cc(F)c(N4CCC(c5ccccc5)CC4)c(F)c3)ccc2[nH]1)[C@@H](C)OC` [Example 5.3, methyl {(2S,3R)-1-[(2S)-2-{5-[(2R,5R)-1-[3,5-difluoro-4-(4-phenylpiperidin-1-yl)phenyl]-5-(2-{(2S)-1-[N-(methoxycarbonyl)-O-methyl-L-threonyl]pyrrolidin-2-yl}-1H-benzimidazol-5-yl)pyrrolidin-2-yl]-1H-benzimidazol-2-yl}pyrrolidin-1-yl]-3-methoxy-1-oxobutan-2-yl}carbamate], the EC50 is below 0.1 nM.

Turning to `COC(=O)N[C@H](C(=O)N1CCC[C@H]1c1nc2cc([C@H]3CC[C@H](c4cc5nc([C@@H]6CCCN6C(=O)[C@@H](NC(=O)OC)C(C)C)[nH]c5cc4F)N3c3cc(F)c(N4CCC(C(F)(c5ccccc5)c5ccccc5)CC4)c(F)c3)c(F)cc2[nH]1)C(C)C` [Example 4.37, methyl {(2S)-1-[(2S)-2-{5-[(2R,5R)-1-(3,5-difluoro-4-{4-[fluoro(diphenyl)methyl]piperidin-1-yl}phenyl)-5-{6-fluoro-2-[(2S)-1-{(2S)-2-[(methoxycarbonyl)amino]-3-methylbutanoyl}pyrrolidin-2-yl]-1H-benzimidazol-5-yl}pyrrolidin-2-yl]-6-fluoro-1H-benzimidazol-2-yl}pyrrolidin-1-yl]-3-methyl-1-oxobutan-2-yl}carbamate], the EC50 is below 0.1 nM.

Consider `COC(=O)N[C@H](C(=O)N1CCC[C@H]1c1nc2cc([C@H]3CC[C@H](c4ccc5[nH]c([C@@H]6CCCN6C(=O)[C@@H](NC(=O)OC)C(C)C)nc5c4)N3c3cc(F)c(N4CC5CCC4CC5)c(F)c3)ccc2[nH]1)C(C)C` [Example 4.21, methyl {(2S)-1-[(2S)-2-{5-[(2R,5R)-1-[4-(2-azabicyclo[2.2.2]oct-2-yl)-3,5-difluorophenyl]-5-{2-[(2S)-1-{(2S)-2-[(methoxycarbonyl)amino]-3-methylbutanoyl}pyrrolidin-2-yl]-1H-benzimidazol-5-yl}pyrrolidin-2-yl]-1H-benzimidazol-2-yl}pyrrolidin-1-yl]-3-methyl-1-oxobutan-2-yl}carbamate], for which the EC50 was below 0.1 nM.

Consider `COC(=O)N[C@H](C(=O)N1CCC[C@H]1c1nc2cc([C@H]3CC[C@H](c4ccc5[nH]c([C@@H]6CCCN6C(=O)[C@@H](NC(=O)OC)C(C)C)nc5c4)N3c3ccc(OC4COCOC4)cc3)ccc2[nH]1)C(C)C` [Example 2.3, methyl {(2S)-1-[(2S)-2-{5-[(2R,5R)-1-[4-(1,3-dioxan-5-yloxy)phenyl]-5-{2-[(2S)-1-{(2S)-2-[(methoxycarbonyl)amino]-3-methylbutanoyl}pyrrolidin-2-yl]-1H-benzimidazol-5-yl}pyrrolidin-2-yl]-1H-benzimidazol-2-yl}pyrrolidin-1-yl]-3-methyl-1-oxobutan-2-yl}carbamate], for which the EC50 fell in the range of 1 to 10 nM.

With `COC(=O)N[C@H](C(=O)N1CCC[C@H]1c1nc2cc([C@H]3CC[C@H](c4ccc5[nH]c([C@@H]6CCCN6C(=O)[C@@H](NC(=O)OC)C(C)C)nc5c4)N3c3cc(F)c(N4Cc5ccccc5C4)c(F)c3)ccc2[nH]1)C(C)C` [Example 5.13, methyl {(2S)-1-[(2S)-2-{5-[(2R,5R)-1-[4-(1,3-dihydro-2H-isoindol-2-yl)-3,5-difluorophenyl]-5-{2-[(2S)-1-{(2S)-2-[(methoxycarbonyl)amino]-3-methylbutanoyl}pyrrolidin-2-yl]-1H-benzimidazol-5-yl}pyrrolidin-2-yl]-1H-benzimidazol-2-yl}pyrrolidin-1-yl]-3-methyl-1-oxobutan-2-yl}carbamate], the EC50 is below 0.1 nM.

As to `COC(=O)N[C@H](C(=O)N1CCC[C@H]1c1nc2cc([C@H]3CC[C@H](c4cc5nc([C@@H]6CCCN6C(=O)[C@@H](NC(=O)OC)C(C)C)[nH]c5cc4F)N3c3cc(F)c(N4CCC(C5CCCCC5)CC4)c(F)c3)c(F)cc2[nH]1)C(C)C` [Example 4.54, methyl {(2S)-1-[(2S)-2-{5[(2R,5R)-1-[4-(4-cyclohexylpiperidin-1-yl)-3,5-difluorophenyl]-5-{6-fluoro-2-[(2S)-1-{(2S)-2-[(methoxycarbonyl)amino]-3-methylbutanoyl}pyrrolidin-2-yl]-1H-benzimidazol-5-yl}pyrrolidin-2-yl]-6-fluoro-1H-benzimidazol-2-yl}pyrrolidin-1-yl]-3-methyl-1-oxobutan-2-yl}carbamate], the EC50 was below 0.1 nM.

In the case of `COC(=O)N[C@H](C(=O)N1CCC[C@H]1c1nc2ccc([C@H]3CC[C@H](c4ccc5nc([C@@H]6CCCN6C(=O)[C@@H](NC(=O)OC)C(C)C)[nH]c5c4)N3c3ccc(N4CCC(F)(c5ccccc5)CC4)cc3)cc2[nH]1)C(C)C` [Example 4.36, methyl {(2S)-1-[(2S)-2-{6-[(2R,5R)-1-[4-(4-fluoro-4-phenylpiperidin-1-yl)phenyl]-5-{2-[(2S)-1-{(2S)-2-[(methoxycarbonyl)amino]-3-methylbutanoyl}pyrrolidin-2-yl]-1H-benzimidazol-6-yl}pyrrolidin-2-yl]-1H-benzimidazol-2-yl}pyrrolidin-1-yl]-3-methyl-1-oxobutan-2-yl}carbamate], the EC50 was below 0.1 nM.
